Laboratory results from PubChem BioAssay AID1259411 (Chemical Carcinogenesis Research Information System (CCRIS), 2018).
Activity calls are given as the source filed them. The rule behind the calls is not given here.

System: rodent carcinogenicity bioassays, tumor incidence
Assay: CCRIS carcinogenicity studies
Procedure, shortened: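 Archive of carcinogenicity, mutagenicity, tumor promotion and tumor inhibition results drawn from journals, NCI reports and other sources, expert-reviewed; covers 1985-2011 and is no longer updated.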

[1] = Species: MOUSE, Route: ORAL, Tumor Site: Type of Lesion: LIVER

O=C1c2ccccc2C(=O)c2c(O)c(O)cc(O)c21
carcinogen call (Species: RAT, Strain/Sex: F344/MALE, Route: ORAL, Dose: 0, 1% IN DIET FOR 520 D (STUDY DURATION: 520 D), Tumor Site: Type of Lesion: URINARY BLADDER: CARCINOMA): active; positive

C#C[C@]1(O)CC[C@H]2[C@@H]3CCC4=CC(=O)CC[C@@H]4[C@H]3CC[C@@]21C
carcinogen call (Species: MOUSE, Route: ORAL, Tumor Site: Type of Lesion: LIVER, LUNG): active; positive

CCCCOCCO
carcinogen call (Species: MOUSE, Strain/Sex: B6C3F1/FEMALE, Route: INHALATION, Dose: 0, 62.5, 125, 250 PPM 6 HR/D 5D/WK FOR 104 WK (STUDY DURATION: 104 WK), Dose: 0, 62.5, 125, 250 PPM 6 HR/D 5D/WK FOR 104 WK (STUDY DURATION: 104 WK), Tumor Site: Type of Lesion: FORESTOMACH: SQUAMOUS CELL PAPILLOMA OR CARCINOMA): active; positive
carcinogen call (Species: MOUSE, Strain/Sex: B6C3F1/MALE, Route: INHALATION, Dose: 0, 62.5, 125, 250 PPM 6 HR/D 5D/WK FOR 104 WK (STUDY DURATION: 104 WK), Dose: 0, 62.5, 125, 250 PPM 6 HR/D 5D/WK FOR 104 WK (STUDY DURATION: 104 WK), Tumor Site: Type of Lesion: LIVER: HEMANGIOSARCOMA, HEPATOCELLULAR CARCINOMA): active; positive
carcinogen call (Species: RAT, Strain/Sex: F344/FEMALE, Route: INHALATION, Dose: 0, 31.2, 62.5, 125 PPM 6 HR/D 5D/WK FOR 104 WK (STUDY DURATION: 104 WK), Dose: 0, 31.2, 62.5, 125 PPM 6 HR/D 5D/WK FOR 104 WK (STUDY DURATION: 104 WK), Tumor Site: Type of Lesion: ADRENAL MEDULLA: BENIGN OR MALIGNANT PHEOCHROMOCYTOMA): equivocal
carcinogen call (Species: RAT, Strain/Sex: F344/MALE, Route: INHALATION, Dose: 0, 31.2, 62.5, 125 PPM 6 HR/D 5D/WK FOR 104 WK (STUDY DURATION: 104 WK), Dose: 0, 31.2, 62.5, 125 PPM 6 HR/D 5D/WK FOR 104 WK (STUDY DURATION: 104 WK)): inactive; negative

CCNC(=O)Nc1ncc([N+](=O)[O-])s1
carcinogen call (Species: MOUSE, Strain/Sex: B6C3F1/FEMALE, Route: ORAL, Dose: 0, 2500, 5000 PPM IN DIET FOR 94 WK (STUDY DURATION: 104 WK), Dose: 0, 2500, 5000 PPM IN DIET FOR 94 WK (STUDY DURATION: 104 WK), Tumor Site: Type of Lesion: LIVER: HEPATOCELLULAR ADENOMA OR CARCINOMA): equivocal
carcinogen call (Species: MOUSE, Strain/Sex: B6C3F1/MALE, Route: ORAL, Dose: 0, 2500, 5000 PPM IN DIET FOR 94 WK (STUDY DURATION: 104 WK), Dose: 0, 2500, 5000 PPM IN DIET FOR 94 WK (STUDY DURATION: 104 WK), Tumor Site: Type of Lesion: LIVER: HEPATOCELLULAR CARCINOMA OR ADENOMA): active; positive
carcinogen call (Species: RAT, Strain/Sex: F344/FEMALE, Route: ORAL, Dose: 0, 625, 1250 PPM IN DIET FOR 94 WK (STUDY DURATION: 104 WK), Dose: 0, 625, 1250 PPM IN DIET FOR 94 WK (STUDY DURATION: 104 WK), Tumor Site: Type of Lesion: INTEGUMENTARY SYSTEM (SKIN AND SUBCUTANEOUS TISSUE) AND MAMMARY GLAND: FIBROADENOMA OR CYSTADENOMA (NOS)): active; positive
carcinogen call (Species: RAT, Strain/Sex: F344/MALE, Route: ORAL, Dose: 0, 625, 1250 PPM IN DIET FOR 94 WK (STUDY DURATION: 104 WK), Dose: 0, 625, 1250 PPM IN DIET FOR 94 WK (STUDY DURATION: 104 WK)): inactive; negative

CC(C)=CCC/C(C)=C/C=C/C(C)=C/C=C/C(C)=C/C=C/C=C(C)/C=C/C=C(C)/C=C/C=C(\C)CCC=C(C)C
carcinogen call (Species: MOUSE, Strain/Sex: C57BL/6J/MALE, Route: ORAL, Dose: 0, 50, 200 PPM IN DRINKING WATER FOR 80 WK (STUDY DURATION: 80 WK), Dose: 0, 50, 200 PPM IN DRINKING WATER FOR 80 WK (STUDY DURATION: 80 WK)): inactive; negative

Cc1cc(O)c2c(c1O)C(=O)C13C(=C2O)C(=O)C2C(O)C1C1C(O)C3C(=O)C3=C(O)c4c(O)cc(C)c(O)c4C(=O)C321 (stereo not drawn)
carcinogen call [1]: active; positive

O=c1cc[nH]c(=S)[nH]1
carcinogen call [1]: active; positive
carcinogen call (Species: RAT, Route: ORAL, Tumor Site: Type of Lesion: THYROID GLAND): active; positive

CC(C)=NO
carcinogen call (Species: RAT, Strain/Sex: WISTAR/MALE, Route: ORAL, Dose: 1.0 G/L IN DRINKING WATER 5/WK FOR 18 MO, Tumor Site: Type of Lesion: LIVER: HEPATOCELLULAR ADENOMA): active; positive

CCOP(=O)(NC(C)C)Oc1ccc(SC)c(C)c1 (stereo not drawn)
carcinogen call (Species: Mouse, Strain/Sex: CD-1/Female (50/Group), Route: Oral, Dose: 0, 2, 10, 50 ppm of 89.2-90.5% fenamiphos in diet for 20 mo, study duration 20 mo, Dose: 0, 2, 10, 50 ppm of 89.2-90.5% fenamiphos in diet for 20 mo, study duration 20 mo): inactive; negative
carcinogen call (Species: Mouse, Strain/Sex: CD-1/Male (50/Group), Route: Oral, Dose: 0, 2, 10, 50 ppm of 89.2-90.5% fenamiphos in diet for 20 mo, study duration 20 mo, Dose: 0, 2, 10, 50 ppm of 89.2-90.5% fenamiphos in diet for 20 mo, study duration 20 mo): inactive; negative
carcinogen call (Species: Rat, Strain/Sex: Strain not specified/Female (50/Group), Route: Oral, Dose: 0, 2, 10, 50 ppm Nemacure (89% fenamiphos) in diet for 2 yr, study duration 2 yr, Dose: 0, 2, 10, 50 ppm Nemacure (89% fenamiphos) in diet for 2 yr, study duration 2 yr): inactive; negative
carcinogen call (Species: Rat, Strain/Sex: Strain not specified/Male (50/Group), Route: Oral, Dose: 0, 2, 10, 50 ppm Nemacure (89% fenamiphos) in diet for 2 yr, study duration 2 yr, Dose: 0, 2, 10, 50 ppm Nemacure (89% fenamiphos) in diet for 2 yr, study duration 2 yr): inactive; negative

CC(C)CON=O
carcinogen call (Species: MOUSE, Strain/Sex: B6C3F1/FEMALE, Route: INHALATION, Dose: 0, 158, 315, 630 MG/M3 6 HR/D 5 D/WK FOR 103 WK (STUDY DURATION: 104 WK), Dose: 0, 158, 315, 630 MG/M3 6 HR/D 5 D/WK FOR 103 WK (STUDY DURATION: 104 WK), Tumor Site: Type of Lesion: LUNG: ALVEOLAR/BRONCHIOLAR ADENOMA, ALVEOLAR/BRONCHIOLAR ADENOMA OR CARCINOMA): active; positive
carcinogen call (Species: MOUSE, Strain/Sex: B6C3F1/MALE, Route: INHALATION, Dose: 0, 158, 315, 630 MG/M3 6 HR/D 5 D/WK FOR 103 WK (STUDY DURATION: 104 WK), Dose: 0, 158, 315, 630 MG/M3 6 HR/D 5 D/WK FOR 103 WK (STUDY DURATION: 104 WK), Tumor Site: Type of Lesion: LUNG: ALVEOLAR/BRONCHIOLAR ADENOMA, ALVEOLAR/BRONCHIOLAR ADENOMA OR CARCINOMA): active; positive
carcinogen call (Species: RAT, Strain/Sex: F344/FEMALE, Route: INHALATION, Dose: 0, 158, 315, 630 MG/M3 6 HR/D 5 D/WK FOR 103 WK (STUDY DURATION: 105 WK), Dose: 0, 158, 315, 630 MG/M3 6 HR/D 5 D/WK FOR 103 WK (STUDY DURATION: 105 WK), Tumor Site: Type of Lesion: LUNG: ALVEOLAR/BRONCHIOLAR ADENOMA, ALVEOLAR/BRONCHIOLAR CARCINOMA OR ADENOMA): active; positive
carcinogen call (Species: RAT, Strain/Sex: F344/MALE, Route: INHALATION, Dose: 0, 158, 315, 630 MG/M3 6 HR/D 5 D/WK FOR 103 WK (STUDY DURATION: 105 WK), Dose: 0, 158, 315, 630 MG/M3 6 HR/D 5 D/WK FOR 103 WK (STUDY DURATION: 105 WK), Tumor Site: Type of Lesion: LUNG: ALVEOLAR/BRONCHIOLAR ADENOMA, ALVEOLAR/BRONCHIOLAR CARCINOMA): active; positive

C[C@]12CC[C@H]3C(=CCc4cc(OS(=O)(=O)O)ccc43)[C@@H]1CCC2=O
carcinogen call (Species: HAMSTER, Strain/Sex: SYRIAN/MALE, Route: SUBCUTANEOUS IMPLANT, Dose: 0, 20 MG IN PELLETS IMPLANTED EVERY 2.5 MO FOR 9 MO (STUDY DURATION: 9 MO), Tumor Site: Type of Lesion: KIDNEY: TUMOR): active; positive

CC(=O)[O-].CC(=O)[O-].[OH-].[OH-].[OH-].[OH-].[Pb+2].[Pb+2].[Pb+2]
carcinogen call (Species: MOUSE, Strain/Sex: STRAIN-A/MALE,FEMALE, Route: INTRAPERITONEAL, Dose: 30, 75, 150 MG/KG 3/WK FOR 5 WK, Dose: 30, 75, 150 MG/KG 3/WK FOR 5 WK, Tumor Site: Type of Lesion: LUNG: ADENOMA): active; positive
carcinogen call (Species: MOUSE, Strain/Sex: SWISS/MALE, Route: ORAL, Dose: 0.1% IN DIET FOR TWO YR, Tumor Site: Type of Lesion: KIDNEY: ADENOMA, CARCINOMA): active; positive
carcinogen call (Species: RAT, Strain/Sex: SPRAGUE-DAWLEY/MALE, Route: ORAL, Dose: 1% IN DIET, Tumor Site: Type of Lesion: KIDNEY: ADENOMA, CARCINOMA, BRAIN: GLIOMA): active; positive
carcinogen call (Species: RAT, Strain/Sex: WISTAR/MALE,FEMALE, Route: ORAL, Dose: 0.1, 1.0% IN DIET FOR UP TO 29 MO, Tumor Site: Type of Lesion: KIDNEY: CARCINOMA): active; positive
